# Reference: patent US11806344B2, “Pharmaceutical composition comprising mineralocorticoid receptor antagonist and use thereof” (priority 2016, dated 2023)
# “Also recorded” adds a separate entry of the source. Read-outs that look alike come from different tables or passages of the source.
# Tests used:
# [1] = 13-week toxicity and pharmacokinetic study in SD rats with 4-week recovery (Example 5); assay type: in vivo; details: rat, in vivo; for AUC(0-t): SD, po, read-out: AUC0-24 h; for NOAEL at 13 weeks: oral, read-out: NOAEL (no observed adverse effect level)
# Description: (§1) Sample to test: Solid dispersion of Compound I (Compound I:PVPK30=1:8 (w/w))
# (§2) Animals: SD Rats, SPF Level.
# (§3) Two hundred and twenty SD rats were used in the studies. Three groups, i.e., high dose group, intermediate dose group and low dose group, were administered with Compound I with following doses, 20 males and 20 females for each group. In specific, male animals were given the suspension at the doses of 3, 9 and 30 mg/kg/day, respectively, while the females were administered at the doses of 1, 3, and 10 mg/kg/day, respectively. The animals in the control group, 20 males and 20 females, were given purified water. All animals fasted overnight before blood collections and anatomical examinations.
# (§4) In addition, for the pharmacokinetic study, 9 males and 9 females were assigned into the administration group, while 3 males and 3 females were for the control group.
# SD rats = experiment: as above; assay type: in vivo; details: 13 weeks
# Description: as §1, §2, §3, §4
# [2] = test system: Dahl/ss rats with salt induced renal injury; experiment: Efficacy test in salt-sensitive rats with salt induced renal injury (Example 6); assay type: in vivo; details: Dahl/ss rats on 4% NaCl diet
# Description: Animals: Male Dahl/Ss Rats
# Solid dispersions of Compound I (Compound I:PVPK30=1:8 (w/w)): Solid dispersions of Compound I was formulated with suitable amount of sterile water for injection into suspensions having concentrations of 0.03, 0.10, 0.30 and 1.00 mg/mL, respectively. The suspensions were prepared immediately before use. […]
# One week before the experiment, the blood pressures were measured twice in rats by the tail-cuff blood pressure measurement so that rats could accommodate to the blood pressure monitoring operation. Then, immediately before the test, the blood pressure was determined and used as the baseline value. […]
# Blood pressure (systolic blood pressure, SBP) measurement: Blood pressure was measured for 6 weeks, once a week, and the blood pressure changes in these groups were analyzed.
# Pathological examination for the kidney and heart: At the end of the study, rats were sacrificed painlessly, from which bilateral kidneys and the heart were collected for histopathological analysis. The kidneys were stained using Hematoxylin-Eosin (HE) to semi-quantitatively evaluate renal injuries. The thickness of the left ventricular wall was measured for each heart to analyze the heart injury. […]
# [3] = Safety, tolerability and pharmacokinetics in healthy subjects, multiple doses (Example 8); assay type: in vivo, human; details: human, plasma, oral, healthy subjects, 14 days, read-out: average steady-state AUC0-24 (AUCtau)
# Description: (§5) Two groups of healthy subjects were given capsules once a day at daily doses of 2.5 mg (1 capsule for each administration, 2.5 mg of Compound I per capsule), and 5.0 mg (2 capsules for each administration, 2.5 mg of Compound I per capsule), respectively, each group containing 6 subjects. The administration continued for 14 consecutive days. The capsules used in this study were of Capsule formulation 4 prepared in Example 2.
# (§6) Plasma samples were collected to measure plasma drug concentration, and the pharmacokinetic parameters were analyzed using the non-compartment model. Serum samples were collected to measure serum potassium levels.
# healthy subjects = experiment: as above; assay type: in vivo, human; details: for average steady-state AUC0-24 (AUCtau): 14 days
# Description: as §5, §6
# [4] = Effect of surfactants on absorption in SD rats (Example 4-1); details: rat, plasma, oral, 1 mg/kg
# Description: Blood collection: The animals were fixed and had their tails warmed in a water bath 10 min prior to blood collection; about 100 μL of blood was collected through the tail vein for each animal and put into an anticoagulation tube containing hepatin; the blood samples were subject to centrifugation at 8000 rpm for 6 min at 4° C. to obtain plasma samples, which had to be obtained within 30 minutes after blood was collected; the plasma samples were stored in a freezer at −80° C. for future tests.
# Sample analysis: 50 μL of each plasma sample from the freezer was transferred to a centrifugal tube; 100 μL of water and 400 μL of MTBE standard solution (50 ng/mL) were added into the tube and well mixed with the plasma; the obtained mixture was mixed for 10 minutes using a vortex mixer and then subject to centrifugation for 5 minutes (12000 r/min); 300 μL of the supernatant was transferred to another centrifugal tube and blown dry with nitrogen gas; the resultant substance was dissolved in 200 μL of a solution consisting of methanol and water at a ratio of 1:1, of which 20 μL was used for the LC-MS/MS measurement.
# Data processing: the compound concentration was output by Analyst 1.6.1 (AB Sciex); the means, standard deviations, and variation coefficients were calculated using Microsoft Excel (no calculation needed if these parameters were directed output by Analyst 1.6.1), and pharmacokinetic parameters were determined using the NCA analysis object in Pharsight Phoenix 6.3.
# [5] = healthy subjects, multiple doses 2.5 mg/day
smiles,measurement,setting,value
"N#Cc1ccc(N2N=C3c4ccc(C(=O)N5CCC(O)CC5)nc4CC[C@@H]3[C@@H]2C2CCCC2)cc1Cl [Compound I, 2-chloro-4-[(3S,3aR)-3-cyclopentyl-7-(4-hydroxylpiperidine-1-carbonyl)-3,3a,4,5-tetrahydro-2H-pyrazolo[3,4-f]quinolin-2-yl]benzonitrile]",AUC(0-t),"[1]; female, 1 mg/kg/day, female SD rats, 1 mg/kg/day intragastric, 13 weeks",4080 ng·h/mL
same,AUC(0-t),"[1]; female, 3 mg/kg/day, female SD rats, 3 mg/kg/day intragastric, 13 weeks",15500 ng·h/mL
same,AUC(0-t),"[1]; female, 10 mg/kg/day, female SD rats, 10 mg/kg/day intragastric, 13 weeks",43600 ng·h/mL
same,AUC(0-t),"[1]; male, 3 mg/kg/day, male SD rats, 3 mg/kg/day intragastric, 13 weeks",5430 ng·h/mL
same,AUC(0-t),"[1]; male, 9 mg/kg/day, male SD rats, 9 mg/kg/day intragastric, 13 weeks",16500 ng·h/mL
same,AUC(0-t),"[1]; male, 30 mg/kg/day, male SD rats, 30 mg/kg/day intragastric, 13 weeks (steady-state)",49900 ng·h/mL
same,NOAEL at 13 weeks,"[1]; female SD rats, 13 weeks",10 mg/kg/day
same,NOAEL at 13 weeks,"[1]; male SD rats, 13 weeks",30 mg/kg/day
same,serum potassium level (observation),"SD rats; SD rats, high dose/NOAEL (male 30, female 10 mg/kg/day)",no obvious abnormal serum potassium level was observed; also recorded: serum potassium level was not elevated
same,K+ (Mean ± SD),"SD rats; female SD rats, 1 mg/kg/day intragastric",4.4 ± 0.4 mmol/L
same,K+ (Mean ± SD),"SD rats; female SD rats, 3 mg/kg/day intragastric",4.4 ± 0.3 mmol/L
same,K+ (Mean ± SD),"SD rats; female SD rats, 10 mg/kg/day intragastric",4.5 ± 0.2 mmol/L
same,K+ (Mean ± SD),"SD rats; male SD rats, 3 mg/kg/day intragastric",5.0 ± 0.3 mmol/L
same,K+ (Mean ± SD),"SD rats; male SD rats, 9 mg/kg/day intragastric",5.0 ± 0.3 mmol/L
same,K+ (Mean ± SD),"SD rats; male SD rats, 30 mg/kg/day intragastric",5.1 ± 0.2 mmol/L
same,side effects (observation),"SD rats; male SD rats, high dose 30 mg/kg/day",No obvious side effect was observed
same,AUC0-24 at which the drug takes effect (undulation point of SBP or UACR vs AUC0-24 curve),"[2]; 0.3-10 mg/kg/day intragastric twice a day, 42 days",100 ng·h/mL
same,SBP and UACR change (observation),[2]; beyond AUC of 100 h*ng/mL,SBP and UACR were significantly decreased
same,AUC(0-t),"[3]; 2.5 mg/day, multiple doses 2.5 mg/day",2860 ± 821 ng·h/mL
same,AUC(0-t),"[3]; 5 mg/day, multiple doses 5.0 mg/day",6380 ± 1030 ng·h/mL
same,serum potassium level (observation),"healthy subjects; healthy subjects (6), multiple doses 5.0 mg/day",transient elevated serum potassium level observed in three subjects; also recorded: elevated serum potassium levels were observed in 3 subjects but were transient
same,serum potassium level (observation),healthy subjects; [5],no elevated serum potassium level observed; also recorded: elevated serum potassium levels were not observed
same,average steady-state AUC0-24 (AUCtau),healthy subjects; [5],2863 ± 822 ng·h/mL
same,average steady-state AUC0-24 (AUCtau),"healthy subjects; healthy subjects, multiple doses 5.0 mg/day",6373 ± 1026 ng·h/mL
same,AUC individual variation: highest AUC vs lowest AUC subject,"healthy subjects; healthy volunteers, capsule, multiple doses 2.5 mg daily",2.37 times
same,bioavailability,[4],64.7%
